Tests used:
SNM1B = molecular target: T1, SNM1B (Homo sapiens, UniProt Q9H816); test: real-time fluorescence-based nuclease assay, SNM1B; assay type: biochemical
T1 construct: for the MBL and β-CASP domains of SNM1B (aa 1–335) into baculoviral expression vectors pFB-CT10HF-LIC; made in house; host or cells: Sf9 insect cells (baculovirus)
T1 sequence (Q9H816 1-335): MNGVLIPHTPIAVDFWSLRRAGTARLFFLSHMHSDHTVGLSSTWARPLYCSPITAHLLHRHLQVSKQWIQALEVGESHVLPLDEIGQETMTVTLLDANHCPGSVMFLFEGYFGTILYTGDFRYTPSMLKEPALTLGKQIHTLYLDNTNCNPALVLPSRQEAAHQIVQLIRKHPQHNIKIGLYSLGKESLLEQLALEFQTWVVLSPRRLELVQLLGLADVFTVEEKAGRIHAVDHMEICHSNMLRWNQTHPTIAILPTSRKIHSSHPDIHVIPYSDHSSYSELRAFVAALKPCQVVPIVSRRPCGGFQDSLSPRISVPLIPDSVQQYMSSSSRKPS
Method: There is structural similarity between SNM1A, SNM1B, and SNM1C and major mechanistic features are likely conserved between the three nucleases. We therefore tested (13) and other hydroxamic acid analogues for inhibition of SNM1B and SNM1C. Due to differences in catalytic turnover between the three enzymes, different concentrations of SNM1B (1 nM) and SNM1C (2.5 nM) were used compared to that for SNM1A (0.5 nM) in the assays. Note that the substrate utilised for the high-throughput fluorescence based and subsequent SNM1A and SNM1B assays differed slightly for SNM1C reflecting its (primarily) endonucleolytic, rather than exonucleolytic, activity (ESI Fig. 9 ^†).
Fluorescence-based nuclease digestion SNM1A–C assays were performed as described.[30,45] […] Fluorescence was measured using a PHERAstar FSX fluorescent plate reader in fluorescent top read mode using excitation at 495 nm, emission at 525 nm, and cutoff at […]. Fluorescence spectra were measured every 140 s, for 35 min, at 37 °C. The fluorescence intensity of each well was plotted against compound concentration and fitted using a log (inhibitor) response curve using GraphPad Prism software (GraphPad Software, Inc., La Jolla, CA, USA).

[1] = test system: SNM1A- cells generated in U2OS background; test: clonogenic survival assay, SNM1A- U2OS cells; assay type: cell-based, human; conditions: 50 μM compound
Method: (§1) Clonogenic assays were performed in 10 cm tissue culture dishes (for RPE-1 cells, U2OS cells and derived clones). Cells (1000 per dish) were seeded in complete media (10 mL) and allowed to attach overnight, then treated with cisplatin or cisplatin plus inhibitor for the times stated. Following treatments, cells were allowed to grow and form colonies for 10 days. Colonies formed were stained with Coomassie R250 (Sigma) and counted on a COLCount Colony Counter (Oxford Optronix). All experiments represent the mean (±SEM) of at least three biological repeats of duplicate dishes/flasks for each treatment.

RPE-1 cells = test: clonogenic survival assay, RPE-1 cells; assay type: cell-based, human
Method: as §1

[2] = test system: γH2AX foci in RPE-1 cells; test: microscopic analysis of damage-induced subnuclear foci, RPE-1 cells; assay type: cell-based, human
Method: To assess the number of nuclear foci following cisplatin/inhibitor treatments, cells were plated in glass bottom dishes (as above) and allowed to attach. Following treatment, cells were fixed with 4% (v/v) formaldehyde in PBS, blocked with immunofluoresence (IF) blocking buffer (5% horse serum, 1% saponin in PBS) for 1 h, then incubated with primary antibodies at the desired concentrations in IF blocking buffer (overnight, 4 °C).
Images were imported into ImageJ and foci were counted using a macro adjusting for staining levels between experiments. Anti-γH2AX antibodies were a mouse monoclonal (Millipore; JBW301).

## C[C@H](Nc1nc(NCc2ccco2)nc2ccc(Cl)cc12)C(=O)NO [compound 19]
SNM1B
  IC50: 2.5 µM
[1]
  effect on cisplatin sensitivity: similarly sensitive to cisplatin treatment in the presence or absence of 19
RPE-1 cells; RPE-1, 50 μM compound
  effect on cisplatin sensitivity: did not substantially increase
  reduction in survival as single agent: negligible reduction in survival
RPE-1 cells; RPE-1, 100 μM compound
  toxicity as single agent: mild toxicity
[2]; RPE-1, cisplatin treated with 50 μM 19
  average γH2AX foci count at 24 hours: 21.2 ± 0.7 foci
[2]; RPE-1, cisplatin treated, 24 hours
  increase of average γH2AX foci count following pretreatment: 2 fold
